One assay has as its target T1, FLT3 (Homo sapiens, UniProt P36888).
T1 sequence (P36888 27-993): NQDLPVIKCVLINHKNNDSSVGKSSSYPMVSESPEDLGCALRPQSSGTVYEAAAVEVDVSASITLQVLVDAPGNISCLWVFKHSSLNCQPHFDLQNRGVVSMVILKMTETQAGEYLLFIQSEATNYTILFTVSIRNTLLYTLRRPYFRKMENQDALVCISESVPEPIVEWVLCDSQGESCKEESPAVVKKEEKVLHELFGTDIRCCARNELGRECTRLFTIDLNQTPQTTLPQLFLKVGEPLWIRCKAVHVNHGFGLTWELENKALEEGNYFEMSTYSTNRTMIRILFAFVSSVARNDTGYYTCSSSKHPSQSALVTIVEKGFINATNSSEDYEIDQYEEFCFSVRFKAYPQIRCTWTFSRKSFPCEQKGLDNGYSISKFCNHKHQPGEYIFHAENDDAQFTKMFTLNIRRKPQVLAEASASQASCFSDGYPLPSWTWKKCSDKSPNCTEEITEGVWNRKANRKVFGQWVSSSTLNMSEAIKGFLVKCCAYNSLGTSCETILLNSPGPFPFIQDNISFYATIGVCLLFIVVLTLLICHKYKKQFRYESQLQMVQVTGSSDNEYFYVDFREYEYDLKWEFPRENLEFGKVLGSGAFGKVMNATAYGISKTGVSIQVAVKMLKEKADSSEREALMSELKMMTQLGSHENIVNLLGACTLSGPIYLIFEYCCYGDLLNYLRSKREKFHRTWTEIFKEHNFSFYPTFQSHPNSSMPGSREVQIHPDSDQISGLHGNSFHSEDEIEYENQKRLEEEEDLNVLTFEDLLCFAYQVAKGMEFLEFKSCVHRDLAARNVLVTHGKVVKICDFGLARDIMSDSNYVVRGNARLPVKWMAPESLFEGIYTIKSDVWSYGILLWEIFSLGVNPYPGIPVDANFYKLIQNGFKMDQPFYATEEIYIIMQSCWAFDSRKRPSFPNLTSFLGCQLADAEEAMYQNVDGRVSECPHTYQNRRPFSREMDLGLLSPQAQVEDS
Description: TR-FRET kinase activity assay, FLT3. Type of assay: biochemical. The following applies: ATP at Km, 60 minutes. The method in brief:
(§1)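 Enzyme + labelled peptide + cpd premixed; ATP at per-enzyme Km starts rxn. 60 min RT, HEPES pH 7.5/MgCl2/EGTA/Brij 35/DTT buffer. Stop 12.5 mM EDTA, Eu phospho-Ab 30 min dark, TR-FRET read → IC50.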
(In general: TR-FRET usually uses a lanthanide donor and a delayed reading to cut background.)

For a further assay, the target named is T2, AXL (Homo sapiens, UniProt P30530).
T2 sequence (P30530 26-894): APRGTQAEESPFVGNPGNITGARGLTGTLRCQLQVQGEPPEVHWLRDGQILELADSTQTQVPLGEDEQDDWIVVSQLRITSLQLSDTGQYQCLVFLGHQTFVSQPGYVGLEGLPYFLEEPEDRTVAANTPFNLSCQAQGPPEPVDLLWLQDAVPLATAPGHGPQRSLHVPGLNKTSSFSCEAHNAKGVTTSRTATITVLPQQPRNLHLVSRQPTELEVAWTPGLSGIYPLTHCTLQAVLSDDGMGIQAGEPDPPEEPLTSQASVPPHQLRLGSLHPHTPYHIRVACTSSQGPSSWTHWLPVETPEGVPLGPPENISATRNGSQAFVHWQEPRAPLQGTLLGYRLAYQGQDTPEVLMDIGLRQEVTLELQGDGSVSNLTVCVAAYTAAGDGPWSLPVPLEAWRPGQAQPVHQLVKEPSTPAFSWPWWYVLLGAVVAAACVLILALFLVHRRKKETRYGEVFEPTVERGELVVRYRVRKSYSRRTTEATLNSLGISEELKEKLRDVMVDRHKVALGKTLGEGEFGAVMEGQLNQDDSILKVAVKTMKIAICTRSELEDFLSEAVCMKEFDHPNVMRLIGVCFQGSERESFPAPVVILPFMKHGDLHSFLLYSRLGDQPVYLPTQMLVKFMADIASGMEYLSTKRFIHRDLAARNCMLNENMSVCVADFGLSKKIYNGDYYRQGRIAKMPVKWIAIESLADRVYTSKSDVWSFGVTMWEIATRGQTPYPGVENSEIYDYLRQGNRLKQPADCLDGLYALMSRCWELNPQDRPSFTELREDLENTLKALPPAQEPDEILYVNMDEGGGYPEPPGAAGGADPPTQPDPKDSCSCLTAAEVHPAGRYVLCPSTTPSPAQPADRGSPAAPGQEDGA
Nature of the assay: TR-FRET kinase activity assay, AXL. To be noted: ATP at Km, 60 minutes. Format: biochemical. The method in brief:
as §1

As for `C[C@@H](CC(F)(F)F)Nc1ncc2c(-c3ccnc([S@](C)(=N)=O)c3)cc([C@H]3CC[C@H](O)CC3)n2n1` [Compound 580], the IC50 against FLT3 and on AXL was ≤ 100 nM in each case.

Turning to `C[C@@H](CC(F)(F)F)Nc1ncc2c(-c3ccnc([S@@](C)(=N)=O)c3)cc([C@H]3CC[C@H](O)CC3)n2n1` [Compound 581], the half-maximal inhibitory concentration (IC50) at FLT3 and against AXL was ≤ 100 nM throughout.

In the case of `C[C@@H](CC(F)(F)F)Nc1ncc2c(-c3cncc([S@](C)(=N)=O)c3)cc([C@H]3CC[C@H](O)CC3)n2n1` [Compound 582], the 50% inhibitory concentration (IC50) (commonly the point on the concentration scale where inhibition reaches its midpoint) was 1000 to 10000 nM against FLT3 and ≤ 100 nM against AXL.

Consider `C[C@@H](CC(F)(F)F)Nc1ncc2c(-c3cncc([S@@](C)(=N)=O)c3)cc([C@H]3CC[C@H](O)CC3)n2n1` [Compound 583], for which the IC50 is 100 to 1000 nM against FLT3 and ≤ 100 nM at AXL.

Turning to `COC[C@H](C)Nc1ncc2c(-c3ccnc(C(F)(F)F)c3)cc([C@H]3CC[C@H](O)CC3)n2n1` [Compound 584], the 50% inhibitory concentration (IC50) against FLT3 was 1000 to 10000 nM; against AXL it was ≤ 100 nM.

On to `COC[C@H](C)Nc1ncc2c(-c3cnn(C(C)(C)C(=O)N4CCO[C@@H](C(C)(C)O)C4)c3)cc([C@H]3CC[C@H](O)CC3)n2n1` [Compound 585], for which the IC50 against FLT3 was 1000 to 10000 nM; against AXL, ≤ 100 nM.

For `COC[C@H](C)Nc1ncc2c(-c3cnn(C(C)(C)C(=O)N4CCOC(C(C)(C)O)C4)c3)cc([C@H]3CC[C@H](O)CC3)n2n1` (some centres unmarked) [Compound 586], the figures for the half-inhibitory concentration (IC50) at FLT3 and against AXL were 1000 to 10000 nM and ≤ 100 nM, respectively.

Consider `COC[C@H](C)Nc1ncc2c(-c3cnn(C4COC4)c3)cc([C@@H]3CC[C@H](O)[C@H](C)C3)n2n1` [Compound 587], for which the concentration for half-maximal inhibition (IC50) is 100 to 1000 nM against FLT3 and ≤ 100 nM against AXL.

On to `COC[C@H](C)Nc1ncc2c(-c3cnn(C4COC4)c3)cc([C@@H]3CC[C@H](O)[C@@H](C)C3)n2n1` [Compound 588], for which the IC50 against FLT3 and against AXL was 100 to 1000 nM in each case.

On to `COC[C@H](C)Nc1ncc2c(-c3cnn(C4COC4)c3)cc([C@@H]3CC[C@@H](O)[C@H](C)C3)n2n1` [Compound 589], for which the results for the IC50 against FLT3 and against AXL were 100 to 1000 nM and ≤ 100 nM, respectively.

Regarding `COC[C@H](C)Nc1ncc2c(-c3cnn(C(C)(C)C(=O)N4C[C@@H](C)N[C@@H](C)C4)c3)cc([C@H]3CC[C@@H](O)CC3)n2n1` [Compound 591], the concentration for half-maximal inhibition (IC50) against FLT3 is 1000 to 10000 nM; against AXL it was ≤ 100 nM.

For the compound `C[C@@H](COC(F)F)Nc1ncc2c(-c3cnn(C(C)(C)C(=O)N4CCN(C)CC4)c3)cc([C@H]3CC[C@H](O)CC3)n2n1` [Compound 593], the IC50 is 100 to 1000 nM at FLT3 and ≤ 100 nM at AXL.

Take `COC[C@H](C)Nc1ncc2c(-c3cnn(C(C)(C)C(=O)N4CCOCC4)c3)cc([C@@H]3CCc4cn[nH]c4C3)n2n1` [Compound 594]: the half-inhibitory concentration (IC50) on FLT3 was 1000 to 10000 nM; against AXL it was ≤ 100 nM.

(Values after patent US11040981B2, “Pyrrolotriazine compounds and methods of inhibiting TAM kinases” (Syros Pharmaceuticals, Inc., priority 2017, dated 2021).)
